# From patent EP0013144A1, “Substituted diphenylamine derivatives, compositions and herbicidal uses thereof, and processes for their preparation” (ICI AUSTRALIA LIMITED, priority 1978, dated 1980)
# How the values were obtained:
# Type in all cases: in vivo
# Soy bean [1] = assay: Post-emergence herbicidal test, young pot plants (Example 33); conditions: 2.0 kg/ha, after 14 days
# Protocol: (§1) The compounds were formulated for test by mixing an appropriate amount with 5 ml of an emulsion prepared by diluting 160 ml of a solution containing 21.S g per litre of "Span" 80 and 78.2 g per litre of "Tween" 20 in methylcyclohexanone to 500 ml with water. "Span" 80 is a Trade Mark for a surface-active agent comprising sorbitan monolaurate. "Tween" 20 is a Trade Mark for a surface-active agent comprising a condensate of sorbitan monolaurate with 20 molar proportions of ethylene oxide. Each 5 ml emulsion containing a test compound was'then diluted to 40 ml with water and sprayed on to young pot plants (post-emergence test) of the species named in Table 5 below. Damage to test plants was assessed after 14 days on a scale of 0 to 5 where 0 is 0 to 20% damage and 5 is complete kill. In a test for pre-emergence herbicidal activity, seeds of the test plants were sown in a shallow slit formed in the surface of soil in fibre trays. The surface was then levelled and sprayed, and fresh soil then spread thinly over the sprayed surface. Assessment of herbicidal damage was carried out after 21 days using the same scale of 0 to 5 as the post-emergence test. In both cases the degree of herbicidal damage was assessed by comparison with untreated control plants. A dash (-) means that no experiment was carried out.
# Rape [2] = assay: as above; conditions: 2.0 kg/ha, after 14 days
# Protocol: as §1
# Senecio vulgaris [3] = assay: as above; conditions: 2.0 kg/ha, after 14 days
# Protocol: as §1
# Amaranthus retroflexus [4] = assay: as above; conditions: 2.0 kg/ha, after 14 days
# Protocol: as §1
# Polygonum aviculare = assay: as above; conditions: 2.0 kg/ha, after 14 days
# Protocol: as §1
# Ipomea purpurea [5] = assay: as above; conditions: 2.0 kg/ha, after 14 days
# Protocol: as §1
# Cotton [6] = assay: as above; conditions: 2.0 kg/ha, after 14 days
# Protocol: as §1
# Sugar beet [7] = assay: as above; conditions: 2.0 kg/ha, after 14 days
# Protocol: as §1
# Chenopodium album = assay: as above; conditions: 2.0 kg/ha, after 14 days
# Protocol: as §1
# Sunflower [8] = assay: Post-emergence herbicidal activity (Example 32); conditions: 3 weeks after spraying
# Protocol: (§2) Concentrated formulations of the compounds of the invention were prepared by: • a) in the case of oils and waxy solids, dissolving the compound in toluene containing 7% v/v "Teric" N13 ("Teric" is a Trade MarK and "Teric" N13, a product of ethoxylation of nonylphenol, is available from ICI Australia Limited) and 3% v/v "Kemmat" SC15B ("Kemmat" is a Trade Mark and "Kemmat" SC15B is a formulation of calcium dodecylbenzene sulfonate); or • b) in the case of crystalline solids, adding 5 parts by weight of the compound and 1 part by weight of . ''Dyapol" PT ("Dyapol" is a Trade Mark and "Dyapol" PT is an anionic suspending agent) to 94 parts by weight of an aqueous solution containing 0.25% v/v of "Teric" N8 (a product of ethoxylation of nonylphenol) and ball-milling the mixture to produce a stable suspension. The emulsifiable concentrates and suspensions were then diluted with water to give an aqueous composition of the required concentration suitable for use in the evaluation of the pre-emergence and post-emergence herbicidal activity of the compounds of the invention.
# (§3) The post-emergent herbicidal activity of the compounds of the invention formulated as described in Example 30 was assessed by the following procedure.
# (§4) The seeds of the test species were sown in rows 2 cm deep in soil contained in seed boxes. The monocotyledonous plants and the dicotyledonous plants were sown in separate seed boxes in duplicate. The four seed boxes were placed in a glasshouse, lightly watered with an overhead spray to initiate germination and then sub-irrigated as required for optimum plant growth. After the plants had grown to a height of about 10 to 12.5 cm one box of each of the monocotyledonous plants and the dicotyledonous plants was removed from the glasshouse and sprayed with the required quantity of a composition of the invention. After spraying the boxes were returned to the glasshouse for further 3 weeks and the effects of the treatment was visually assessed by comparison with the untreated controls. The results are presented in Table 4 where the damage to plants is rated on a scale of from 0 to 3 where 0 represents 0 to 25% damage, 3 represents 75 to 99% kill and 3+ represents 100% kill. A dash (-) means that no experiment was carried out.
# Wild Oats [9] = assay: Post-emergence herbicidal activity (Example 32); conditions: 3 weeks after spraying
# Protocol: as §2, §3, §4
# Mustard [10] = assay: Post-emergence herbicidal activity (Example 32); conditions: 3 weeks after spraying
# Protocol: as §2, §3, §4
# Ryegrass [11] = assay: Post-emergence herbicidal activity (Example 32); conditions: 3 weeks after spraying
# Protocol: as §2, §3, §4
# Japanese millet [12] = assay: Post-emergence herbicidal activity (Example 32); conditions: 3 weeks after spraying
# Protocol: as §2, §3, §4
# Maize [13] = assay: Post-emergence herbicidal test, young pot plants (Example 33); conditions: 2.0 kg/ha, after 14 days
# Protocol: as §1
# Rice [14] = assay: as above; conditions: 2.0 kg/ha, after 14 days
# Protocol: as §1
# Ryegrass [15] = assay: Pre-emergence herbicidal activity (Example 31); set-up: key: 0-3 scale: 0 = 0-25% damage, 3 = 75-99% kill, 3+ = 100% kill; conditions: 10 kg/ha, after three weeks
# Protocol: as §2
# (§5) The pre-emergent herbicidal activity of the compounds of the invention formulated as described in Example 30 was assessed by the following procedure.
# (§6) The seeds of the test species were sown in rows 2 cm deep in soil contained in seed boxes. The monocotyledonous plants and the dicotyledonous plants were sprayed with the required quantity of a composition of the invention. Two duplicate seed Doxes were prepared in the same manner but were not sprayed with a composition of the invention and were used for comparison purposes. All the boxes were placed in a glasshouse, lightly watered with an overhead spray to initiate germination and then sub-irrigated as required for optimum plant growth. After three weeks the boxes were removed from the glasshouse and the effect of the treatment was visually assessed. The results are presented in Table 3 where the damage to plants is rated on a scale of from 0 to 3 where 0 represents from 0 to 25% damage, 3 represents 75 to 99% kill and 3+ represents 100% kill.
# (§7) A dash (-) means that no experiment was carried out.
# Wheat [16] = assay: Pre-emergence herbicidal activity (Example 31); set-up: key: 0-3 scale: 0 = 0-25% damage, 3 = 75-99% kill, 3+ = 100% kill; conditions: 10 kg/ha, after three weeks
# Protocol: as §2, §5, §6, §7
# Wheat [17] = assay: Post-emergence herbicidal activity (Example 32); set-up: key: 0-3 scale: 0 = 0-25% damage, 3 = 75-99% kill, 3+ = 100% kill; conditions: 3 weeks after spraying
# Protocol: as §2, §3, §4
# Sunflower [18] = assay: Pre-emergence herbicidal activity (Example 31); conditions: 10 kg/ha, after three weeks
# Protocol: as §2, §5, §6, §7
# Wild Oats [19] = assay: Pre-emergence herbicidal activity (Example 31); conditions: 10 kg/ha, after three weeks
# Protocol: as §2, §5, §6, §7
# Mustard [20] = assay: Pre-emergence herbicidal activity (Example 31); conditions: 10 kg/ha, after three weeks
# Protocol: as §2, §5, §6, §7
# Ipomea [21] = assay: Pre-emergence herbicidal activity (Example 31); conditions: 10 kg/ha, after three weeks
# Protocol: as §2, §5, §6, §7
# Japanese millet [22] = assay: Pre-emergence herbicidal activity (Example 31); conditions: 10 kg/ha, after three weeks
# Protocol: as §2, §5, §6, §7
# Rice [23] = assay: Pre-emergence herbicidal test, fibre trays (Example 33); conditions: 2.0 kg/ha, after 21 days
# Protocol: as §1
# Maize [24] = assay: as above; set-up: key: 0 = 0-20% damage, 5 = complete kill, vs untreated control; conditions: 2.0 kg/ha, after 21 days
# Protocol: as §1
# Winter wheat [25] = assay: Post-emergence herbicidal test, young pot plants (Example 33); set-up: key: 0 = 0-20% damage, 5 = complete kill, vs untreated control; conditions: 2.0 kg/ha, after 14 days
# Protocol: as §1
# Soy bean [26] = assay: Pre-emergence herbicidal test, fibre trays (Example 33); conditions: 2.0 kg/ha, after 21 days
# Protocol: as §1
# Rape [27] = assay: as above; conditions: 2.0 kg/ha, after 21 days
# Protocol: as §1
# Senecio vulgaris [28] = assay: as above; conditions: 2.0 kg/ha, after 21 days
# Protocol: as §1
# Winter wheat [29] = assay: as above; conditions: 2.0 kg/ha, after 21 days
# Protocol: as §1
# Ipomea purpurea [30] = assay: as above; conditions: 2.0 kg/ha, after 21 days
# Protocol: as §1
# Cotton [31] = assay: as above; conditions: 2.0 kg/ha, after 21 days
# Protocol: as §1
# Sugar beet [32] = assay: as above; conditions: 2.0 kg/ha, after 21 days
# Protocol: as §1
# Ipomea [33] = assay: Post-emergence herbicidal activity (Example 32); conditions: 5 kg/ha, 3 weeks after spraying
# Protocol: as §2, §3, §4
# Amaranthus retroflexus [34] = assay: Pre-emergence herbicidal test, fibre trays (Example 33); conditions: 2.0 kg/ha, after 21 days
# Protocol: as §1
smiles,measurement,setting,value
COC(=O)C(C)Oc1ccc(Nc2ccc([N+](=O)[O-])cc2[N+](=O)[O-])cc1 (centres unmarked) [Compound 15],"damage to test plants, Sy",Soy bean [1],2
same,"damage to test plants, Rp",Rape [2],2
same,"damage to test plants, Sn",Senecio vulgaris [3],0 (0 is 0 to 20% damage)
same,"damage to test plants, Am",Amaranthus retroflexus [4],2
same,"damage to test plants, Pi",Polygonum aviculare,0 (0 is 0 to 20% damage)
same,"damage to test plants, Ip",Ipomea purpurea [5],0 (0 is 0 to 20% damage)
same,"damage to test plants, Ct",Cotton [6],2
same,"damage to test plants, Sb",Sugar beet [7],0 (0 is 0 to 20% damage)
same,"damage to test plants, Ca",Chenopodium album,1
same,"damage to plants, Sf",Sunflower [8]; 1 kg/ha,0 (0 represents 0 to 25% damage)
same,"damage to plants, Sf",Sunflower [8]; 5 kg/ha,0 (0 represents 0 to 25% damage)
same,"damage to plants, Sf",Sunflower [8]; 10 kg/ha,0 (0 represents 0 to 25% damage)
same,"damage to plants, Ot",Wild Oats [9]; 10 kg/ha,2
same,"damage to plants, Ms",Mustard [10]; 1 kg/ha,1
same,"damage to plants, Rg",Ryegrass [11]; 1 kg/ha,1
same,"damage to plants, Rg",Ryegrass [11]; 5 kg/ha,3+ (3+ represents 100% kill)
same,"damage to plants, Rg",Ryegrass [11]; 10 kg/ha,3+ (3+ represents 100% kill)
same,"damage to plants, Jm",Japanese millet [12]; 1 kg/ha,3 (3 represents 75 to 99% kill)
same,"damage to plants, Jm",Japanese millet [12]; 5 kg/ha,3+ (3+ represents 100% kill)
same,"damage to plants, Jm",Japanese millet [12]; 10 kg/ha,3+ (3+ represents 100% kill)
same,"damage to test plants, Mz",Maize [13],4
same,"damage to test plants, Rc",Rice [14],2
same,"damage to plants, Rg",Ryegrass [15],3 (3 represents 75 to 99% kill)
same,"damage to plants, Wh",Wheat [16],0 (0 represents from 0 to 25% damage)
same,"damage to plants, Wh",Wheat [17]; 1 kg/ha,0 (0 represents 0 to 25% damage)
same,"damage to plants, Wh",Wheat [17]; 5 kg/ha,2
same,"damage to plants, Wh",Wheat [17]; 10 kg/ha,2
same,"damage to plants, Sf",Sunflower [18],0 (0 represents from 0 to 25% damage)
same,"damage to plants, Ot",Wild Oats [19],1
same,"damage to plants, Ms",Mustard [20],0 (0 represents from 0 to 25% damage)
same,"damage to plants, Ip",Ipomea [21],0 (0 represents from 0 to 25% damage)
same,"damage to plants, Jm",Japanese millet [22],3 (3 represents 75 to 99% kill)
same,"herbicidal damage, Rc",Rice [23],0 (0 is 0 to 20% damage)
same,"herbicidal damage, Mz",Maize [24],2
same,"damage to test plants, Ww",Winter wheat [25],2
same,"herbicidal damage, Sy",Soy bean [26],1
same,"herbicidal damage, Rp",Rape [27],0 (0 is 0 to 20% damage)
same,"herbicidal damage, Sn",Senecio vulgaris [28],0 (0 is 0 to 20% damage)
same,"herbicidal damage, Ww",Winter wheat [29],0 (0 is 0 to 20% damage)
same,"herbicidal damage, Ip",Ipomea purpurea [30],0 (0 is 0 to 20% damage)
same,"herbicidal damage, Ct",Cotton [31],0 (0 is 0 to 20% damage)
same,"herbicidal damage, Sb",Sugar beet [32],0 (0 is 0 to 20% damage)
COC(=O)C(C)Oc1ccc(N(C)c2ccc([N+](=O)[O-])cc2[N+](=O)[O-])cc1 (centres unmarked) [Compound 18],"damage to test plants, Sy",Soy bean [1],0 (0 is 0 to 20% damage)
same,"damage to test plants, Rp",Rape [2],0 (0 is 0 to 20% damage)
same,"damage to test plants, Sn",Senecio vulgaris [3],0 (0 is 0 to 20% damage)
same,"damage to test plants, Ip",Ipomea purpurea [5],0 (0 is 0 to 20% damage)
same,"damage to test plants, Ct",Cotton [6],0 (0 is 0 to 20% damage)
same,"damage to test plants, Sb",Sugar beet [7],1
same,"damage to plants, Sf",Sunflower [8]; 5 kg/ha,0 (0 represents 0 to 25% damage)
same,"damage to plants, Ot",Wild Oats [9]; 5 kg/ha,3 (3 represents 75 to 99% kill)
same,"damage to plants, Ms",Mustard [10]; 5 kg/ha,0 (0 represents 0 to 25% damage)
same,"damage to plants, Ip",Ipomea [33],0 (0 represents 0 to 25% damage)
same,"damage to plants, Rg",Ryegrass [11]; 5 kg/ha,3+ (3+ represents 100% kill)
same,"damage to plants, Jm",Japanese millet [12]; 5 kg/ha,3+ (3+ represents 100% kill)
same,"damage to test plants, Mz",Maize [13],2
same,"damage to test plants, Rc",Rice [14],0 (0 is 0 to 20% damage)
same,"damage to plants, Wh",Wheat [17]; 5 kg/ha,2
same,"herbicidal damage, Rc",Rice [23],1
same,"herbicidal damage, Mz",Maize [24],1
same,"damage to test plants, Ww",Winter wheat [25],0 (0 is 0 to 20% damage)
same,"herbicidal damage, Sy",Soy bean [26],0 (0 is 0 to 20% damage)
same,"herbicidal damage, Rp",Rape [27],1
same,"herbicidal damage, Sn",Senecio vulgaris [28],0 (0 is 0 to 20% damage)
same,"herbicidal damage, Am",Amaranthus retroflexus [34],0 (0 is 0 to 20% damage)
same,"herbicidal damage, Ww",Winter wheat [29],0 (0 is 0 to 20% damage)
same,"herbicidal damage, Ip",Ipomea purpurea [30],0 (0 is 0 to 20% damage)
same,"herbicidal damage, Ct",Cotton [31],0 (0 is 0 to 20% damage)
same,"herbicidal damage, Sb",Sugar beet [32],0 (0 is 0 to 20% damage)
